This is an account of results in patent US11584763B2, “Chromenopyridine derivatives as phosphatidylinositol phosphate kinase inhibitors” (HIBERCELL, INC., priority 2017, dated 2023).

Holding throughout (format): biochemical
The target of test [1] is T1, PIP4K 2A (Homo sapiens, UniProt P48426).
T1 sequence (P48426 1-406): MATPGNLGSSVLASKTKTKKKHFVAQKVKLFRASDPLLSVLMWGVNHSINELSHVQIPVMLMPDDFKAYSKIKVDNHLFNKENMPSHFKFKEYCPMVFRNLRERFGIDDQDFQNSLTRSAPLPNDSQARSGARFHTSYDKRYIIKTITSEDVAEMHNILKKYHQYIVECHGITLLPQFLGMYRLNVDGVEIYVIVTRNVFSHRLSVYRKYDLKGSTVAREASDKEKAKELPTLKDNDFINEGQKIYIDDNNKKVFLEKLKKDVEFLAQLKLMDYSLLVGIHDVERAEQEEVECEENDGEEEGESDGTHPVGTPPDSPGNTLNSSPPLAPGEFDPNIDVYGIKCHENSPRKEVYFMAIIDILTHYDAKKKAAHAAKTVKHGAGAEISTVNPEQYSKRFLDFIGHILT
Briefly: ADP-glo kinase assay PIP4K 2A. Also on record: 4 nM PIP4K2A (full length protein, SignalChem); purchased SignalChem. The settings on record: compounds listed under IC50 bin headings. In short, it runs like this: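 Full-length PIP4K2A was pre-incubated 15 min at RT with compound in 20 mM MOPS pH 7.2, 25 mM MgCl2, 0.005% Tween 20. The enzyme mix held 4 nM kinase and 100 μM PI(5)P diC8, and ATP was added from a 60 μM solution. After 1 h at RT, ADP-Glo luminescence gave % inhibition versus DMSO, fitted to IC50 over 10 threefold dilutions.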
For orientation: ADP-Glo turns the ADP formed in a reaction into a luminescent signal.

Another test has as its target T2, PIP4K2B (Homo sapiens, UniProt P78356).
T2 construct: made in house; host or cells: E. coli
T2 sequence (P78356 1-416): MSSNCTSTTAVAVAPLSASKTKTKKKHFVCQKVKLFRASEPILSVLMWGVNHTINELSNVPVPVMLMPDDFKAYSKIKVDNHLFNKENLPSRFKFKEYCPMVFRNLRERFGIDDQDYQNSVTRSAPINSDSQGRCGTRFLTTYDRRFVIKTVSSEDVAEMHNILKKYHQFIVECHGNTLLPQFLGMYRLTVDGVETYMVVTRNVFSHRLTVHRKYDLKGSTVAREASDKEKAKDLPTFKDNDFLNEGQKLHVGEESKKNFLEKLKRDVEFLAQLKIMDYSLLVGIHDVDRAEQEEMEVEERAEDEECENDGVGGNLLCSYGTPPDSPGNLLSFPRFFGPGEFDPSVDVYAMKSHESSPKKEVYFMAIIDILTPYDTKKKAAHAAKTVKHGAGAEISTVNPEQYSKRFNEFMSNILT
The experiment in a line: Trans-FI P kinase assay PIP4K2B (PIP4KtypeIIB inhibition assay). As to conditions: compounds listed under IC50 bin headings; 100 uM GTP; read-out: Trans-FI P kinase assays: PIP4K2B IC50. In short, it runs like this: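 GST-tagged human PIP4K2B (5 nM, E. coli-expressed) preincubated 1 h at 27 C with compound (top 4.8 uM, 5% DMSO), then reacted 2 h with 100 uM GTP and 80 uM PI5P/DOPE vesicles in HEPES pH 7.3, MgCl2, Triton X-100. GDP detected by Transcreener FI fluorescence via calibration curve; IC50 from % activity vs log[inhibitor].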

In test [2] the target is T1, PIP4K 2A. Briefly: Kinase Assay PIP4K2 A (PIP4KtypeIIA inhibition assay). The settings on record: compounds listed under IC50 bin headings. Also noted: made in house; host or cells: E. coli. In short, it runs like this: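 GST-tagged enzyme from E. coli at 0.5 nM final was preincubated with compound for 1 h at 27 C, then reacted with 10 uM ATP, 80 uM PI5P and DOPE carrier in 50 mM HEPES pH 7.3, 5% DMSO. After 1 h, ADP was measured by ADP-Glo luminescence against a calibration curve. IC50 was fitted from % residual activity.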

In the case of `COC(=O)N1CCOc2ncc(Nc3cc4c(cn3)-c3ccc(N5CCCC5=O)cc3OC4C)cc21` (stereo not drawn) [Example 83, methyl 7-((5-methyl-8-(2-oxopyrrolidin-1-yl)-5H-chromeno[4,3-c]pyridin-3-yl)amino)-2,3-dihydro-1H-pyrido[2,3-b][1,4]oxazine-1-carboxylate], the IC50 against PIP4K 2A [1] was at most 1 nM; on PIP4K2B it was 1 to 10 nM; at PIP4K 2A [2], at most 1 nM.
In the case of `CC(C)C(=O)N1CCOc2ncc(Nc3cc4c(cn3)-c3ccc(N5CCCC5=O)cc3OC4C)cc21` (stereo not drawn) [Example 84, 1-(3-((1-isobutyryl-2,3-dihydro-1H-pyrido[2,3-b][1,4]oxazin-7-yl)amino)-5-methyl-5H-chromeno[4,3-c]pyridin-8-yl)pyrrolidin-2-one], the IC50 at PIP4K 2A [1] was at most 1 nM; at PIP4K2B, 1 to 10 nM; on PIP4K 2A [2] it was at most 1 nM.
On to `CC1Oc2cc(N3CCCC3=O)ccc2-c2cnc(Nc3cnc4c(c3)N(S(=O)(=O)C(C)C)CCO4)cc21` (stereo not drawn) [Example 85, 1-(3-((1-(isopropylsulfonyl)-2,3-dihydro-1H-pyrido[2,3-b][1,4]oxazin-7-yl)amino)-5-methyl-5H-chromeno[4,3-c]pyridin-8-yl)pyrrolidin-2-one], for which the 50% inhibitory concentration (IC50) is 1 to 10 nM against PIP4K 2A [1], 10 to 100 nM at PIP4K2B and at most 1 nM at PIP4K 2A [2].
With `CC1Oc2cc(N3CCCC3=O)ccc2-c2cnc(Nc3cnc4c(c3)N(C(=O)C(C)(C)C)CCO4)cc21` (stereo not drawn) [Example 86, 1-(5-methyl-3-((1-pivaloyl-2,3-dihydro-1H-pyrido[2,3-b][1,4]oxazin-7-yl)amino)-5H-chromeno[4,3-c]pyridin-8-yl)pyrrolidin-2-one], the figures for the IC50 at PIP4K 2A [1], at PIP4K2B and on PIP4K 2A [2] were at most 1 nM, 1 to 10 nM and at most 1 nM, respectively.
In the case of `COc1ncc(Nc2cc3c(cn2)-c2ccc(N4CCCC4=O)cc2OC3C)cc1NC(C)=O` (stereo not drawn) [Example 87, N-(2-methoxy-5-((5-methyl-8-(2-oxopyrrolidin-1-yl)-5H-chromeno[4,3-c]pyridin-3-yl)amino)pyridin-3-yl)acetamide], the IC50 on PIP4K 2A [1] is 1 to 10 nM; at PIP4K2B, 10 to 100 nM; at PIP4K 2A [2] it was 1 to 10 nM.
Take `COc1ncc(Nc2cc3c(cn2)-c2ccc(N4CCCC4=O)cc2OC3C)cc1NS(C)(=O)=O` (stereo not drawn) [Example 88, N-(2-methoxy-5-((5-methyl-8-(2-oxopyrrolidin-1-yl)-5H-chromeno[4,3-c]pyridin-3-yl)amino)pyridin-3-yl)methanesulfonamide]: the IC50 against PIP4K 2A [1] was 1 to 10 nM; at PIP4K2B, 10 to 100 nM; against PIP4K 2A [2], 1 to 10 nM.
For the compound `COc1ncc(Nc2cc3c(cn2)-c2ccc(N4CCCC4=O)cc2OC3C)cc1N(C)C(C)=O` (stereo not drawn) [Example 89, N-(2-methoxy-5-((5-methyl-8-(2-oxopyrrolidin-1-yl)-5H-chromeno[4,3-c]pyridin-3-yl)amino)pyridin-3-yl)-N-methylacetamide], the concentration for half-maximal inhibition (IC50) against PIP4K 2A [1] was 100 to 1000 nM; at PIP4K2B it was over 1000 nM; against PIP4K 2A [2], 100 to 1000 nM.
On to `COc1ncc(Nc2cc3c(cn2)-c2ccc(N4CCCC4=O)cc2OC3C)cc1N(C)S(C)(=O)=O` (stereo not drawn) [Example 90, N-(2-methoxy-5-((5-methyl-8-(2-oxopyrrolidin-1-yl)-5H-chromeno[4,3-c]pyridin-3-yl)amino)pyridin-3-yl)-N-methylmethanesulfonamide], for which the IC50 against PIP4K 2A [1] lay within 10 to 100 nM; at PIP4K2B it was 100 to 1000 nM; against PIP4K 2A [2], 1 to 10 nM.
In the same order, the values of `CC1Oc2cc(N3CCCC3=O)ccc2-c2cnc(Nc3cncc(S(C)(=O)=O)c3)cc21` (stereo not drawn) [Example 91, 1-(5-methyl-3-((5-(methylsulfonyl)pyridin-3-yl)amino)-5H-chromeno[4,3-c]pyridin-8-yl)pyrrolidin-2-one] are 10 to 100 nM, over 1000 nM and 10 to 100 nM.
Regarding `CC1Oc2cc(N3CCCC3=O)ccc2-c2cnc(Nc3cnc4c(c3)NC(=O)CO4)cc21` (stereo not drawn) [Example 93, 7-((5-methyl-8-(2-oxopyrrolidin-1-yl)-5H-chromeno[4,3-c]pyridin-3-yl)amino)-1H-pyrido[2,3-b][1,4]oxazin-2(3H)-one], the figures for the 50% inhibitory concentration (IC50) at PIP4K 2A [1], at PIP4K2B and against PIP4K 2A [2] were 10 to 100 nM, 100 to 1000 nM and 1 to 10 nM, respectively.
`CC1Oc2cc(N3CCCC3=O)ccc2-c2cnc(Nc3cnc4c(c3)NCCO4)cc21` (stereo not drawn) [Example 94, 1-(3-((2,3-dihydro-1H-pyrido[2,3-b][1,4]oxazin-7-yl)amino)-5-methyl-5H-chromeno[4,3-c]pyridin-8-yl)pyrrolidin-2-one]: the IC50 against PIP4K 2A [1] was in the range of 1 to 10 nM; on PIP4K2B, 10 to 100 nM; at PIP4K 2A [2] it was 1 to 10 nM.
`CC1Oc2cc(N3CCCC3=O)ccc2-c2cnc(Nc3cncc(N4CCOCC4=O)c3)cc21` (stereo not drawn) [Example 95, 4-(5-((5-methyl-8-(2-oxopyrrolidin-1-yl)-5H-chromeno[4,3-c]pyridin-3-yl)amino)pyridin-3-yl)morpholin-3-one]: the IC50 against PIP4K 2A [1] is 10 to 100 nM; at PIP4K2B it was 100 to 1000 nM; against PIP4K 2A [2] it was 1 to 10 nM.
In the same order, the values of `CC1Oc2cc(N3CCCC3=O)ccc2-c2cnc(Nc3cncc(N4CCOCC4)c3)cc21` (stereo not drawn) [Example 96, 1-(5-methyl-3-((5-morpholinopyridin-3-yl)amino)-5H-chromeno[4,3-c]pyridin-8-yl)pyrrolidin-2-one] are 1 to 10 nM, 100 to 1000 nM and 1 to 10 nM.
For `Cc1cncc(Nc2cc3c(cn2)-c2ccc(N4CCCC4=O)cc2OC3C)c1` (stereo not drawn) [Example 97, 1-(5-methyl-3-((5-methylpyridin-3-yl)amino)-5H-chromeno[4,3-c]pyridin-8-yl)pyrrolidin-2-one], the IC50 is 1 to 10 nM on PIP4K 2A [1], 100 to 1000 nM at PIP4K2B and at most 1 nM on PIP4K 2A [2].
Consider `CC(=O)Nc1cncc(Nc2cc3c(cn2)-c2ccc(N4CCCC4=O)cc2OC3C)c1` (stereo not drawn) [Example 100, N-(5-((5-methyl-8-(2-oxopyrrolidin-1-yl)-5H-chromeno[4,3-c]pyridin-3-yl)amino)pyridin-3-yl)acetamide], for which the IC50 against PIP4K 2A [1] was 10 to 100 nM; on PIP4K2B, 10 to 100 nM; against PIP4K 2A [2], at most 1 nM.
With `CC1Oc2cc(N3CCCC3=O)ccc2-c2cnc(Nc3cncc(NC(=O)NCc4ccccc4)c3)cc21` (stereo not drawn) [Example 103, 1-benzyl-3-(5-((5-methyl-8-(2-oxopyrrolidin-1-yl)-5H-chromeno[4,3-c]pyridin-3-yl)amino)pyridin-3-yl)urea], the IC50 is 1 to 10 nM on PIP4K 2A [1], 10 to 100 nM on PIP4K2B and at most 1 nM against PIP4K 2A [2].
In the case of `CC1Oc2cc(N3CCCC3=O)ccc2-c2cnc(Nc3cncc(NC(=O)c4cccc(N)c4)c3)cc21` (stereo not drawn) [Example 106, 3-amino-N-(5-((5-methyl-8-(2-oxopyrrolidin-1-yl)-5H-chromeno[4,3-c]pyridin-3-yl)amino)pyridin-3-yl)benzamide], the figures for the IC50 at PIP4K 2A [1], on PIP4K2B and on PIP4K 2A [2] were 1 to 10 nM, 10 to 100 nM and at most 1 nM, respectively.
As to `CC1Oc2cc(N3CCCC3=O)ccc2-c2cnc(Nc3ccnnc3)cc21` (stereo not drawn) [Example 127, 1-(5-methyl-3-(pyridazin-4-ylamino)-5H-chromeno[4,3-c]pyridin-8-yl)pyrrolidin-2-one], the IC50 was 100 to 1000 nM against PIP4K 2A [1], over 1000 nM on PIP4K2B and 10 to 100 nM at PIP4K 2A [2].
On to `CC1Oc2cc(N3CCCC3=O)ccc2-c2cnc(Nc3cccnn3)cc21` (stereo not drawn) [Example 128, 1-(5-methyl-3-(pyridazin-3-ylamino)-5H-chromeno[4,3-c]pyridin-8-yl)pyrrolidin-2-one], for which the IC50 was 10 to 100 nM against PIP4K 2A [1], 100 to 1000 nM on PIP4K2B and 1 to 10 nM against PIP4K 2A [2].
With `CC1Oc2cc(N3CCCC3=O)ccc2-c2cnc(Nc3cncc(Nc4ccccn4)c3)cc21` (stereo not drawn) [Example 130, 1-(5-methyl-3-((5-(pyridin-2-ylamino)pyridin-3-yl)amino)-5H-chromeno[4,3-c]pyridin-8-yl)pyrrolidin-2-one], the concentration for half-maximal inhibition (IC50) lay in the range of 1 to 10 nM against PIP4K 2A [1], 10 to 100 nM at PIP4K2B and 1 to 10 nM on PIP4K 2A [2].

What is called IC50 is the concentration needed to halve the response being measured.
